In patent US20190106697A1, “Inhibition Of Lactate Transporters For Use In The Treatment Of Inflammatory Diseases” (Queen Mary University of London, priority 2014, published 2019):

Experiments:
activated CD4+ T-cells [1] = test: In vitro chemokinesis of activated CD4+ T-cells towards CXCL10 (transwell); type: cell-based, mouse; settings: for chemokinesis in vitro towards CXCL10 of pre-treated activated CD4+ T-cells: pre-treated overnight: Rapamycin 200 nM, 2-DG 1 mM, Metformin 2 mM
Excerpt: (§1) T-cell isolation, in-vitro activation and subset enrichment: T-cells were isolated from C57BL/6 murine lymph nodes and activated for 3 to 5 days with plate bound anti-CD3 and anti-CD28 antibodies (BioLegend), and IL-2 (PeproTech). CD4+ and CD8+ subsets were enriched with commercially available CD4+ and CD8+ T-cell isolation kits according to the manufacturer's instructions (Easysep, Invitrogen) either prior or post activation according to experimental settings. Chemokinesis assays: Chemokinesis assays were performed in 5 μm transwell inlays. In some experiments, T-cells were pre-treated overnight with a number of drugs purchased from Calbiochem: Rapamycin (200 nM), 2-DG (1 mM), Metformin (2 mM). […] 3×10^6 lymphocytes were seeded in the upper transwell chamber; chemokines were added to the lower chamber: CXCL10 (300 ng/ml), CCL5 (50 ng/ml), CCL19/21 (200 ng/ml of each chemokine). Migrated T-cells were counted with a hemocytometer 2, 4 and 6 hours after seeding and % of migrated cells was calculated.

activated CD4+ T-cells [2] = test: Extracellular acidification rate (ECAR), Seahorse analyzer, CD4+ T-cells; type: cell-based, mouse; settings: for effect on glycolysis (ECAR trace) of metabolic drugs: 2-DG 1 mM, Rapamycin 200 nM, Metformin 2 mM, Etomoxir 100 μM
Experimental: (§2) Measurement of lactate, glycolysis, glucose uptake/flux and cell death: Lactate concentration was measured in the synovial fluid or peritoneal lavage using the Lactate assay Kit (Biovision), according to the manufacturer's instructions. Glycolytic metabolism was measured with a Seahorse XF24 Extracellular Flux Analyzer. Briefly, T-cells were grown in high glucose RPMI-1640 supplemented with 10% FCS. […] T-cell viability upon lactate or metabolic drug treatment was assessed by trypan blue exclusion assay.

activated CD4+ T-cells [3] = test: In vivo peritoneal recruitment model (CXCL10 i.p.) of pre-treated activated CD4+ T-cells; settings: cells pre-treated with Rapamycin 200 nM, 2-DG 1 mM, Metformin 2 mM; CXCL10 120 ng/mouse i.p.
Experimental: In vivo peritoneal recruitment model: All the in vivo experiments were conducted under the UK Home Office regulation (PPL 70/7443). Activated T-cells (5×10^6/mouse) were pre-treated overnight with Rapamycin (200 nM), 2-Deoxyglucose (1 mM) or Metformin (2 mM), then labelled with the fluorescent cell dye DDAO (Invitrogen) and injected intravenously into syngeneic female C57BL/6 mice that had 3 hours prior received an intraperitoneal injection of CXCL10 (120 ng/mouse). 24 hours after injection, mice were sacrificed and spleen and peritoneal lavage were harvested. T-cells were stained for surface markers (CD4 and CD8, ebiosciences) and analysed by FACS. Cells were first gated on CD4 and subsequently analysed for DDAO positivity. This method was used in FIG. 3G and S3E.

naive T-cells = test: In vitro chemotaxis of naive T-cells towards CCL19/21; type: cell-based, mouse; settings: CCL19/21 200 ng/ml each; Rapamycin 200 nM, 2-DG 1 mM, Metformin 2 mM
Excerpt: as §1

Slc16a1 on CD8+ T-cells = target: T1, Slc16a1 on CD8+ T-cells (Mus musculus, UniProt P53986); test: Blockade of Slc16a1: chemokinesis of CD8+ T-cells exposed to lactic-acid; type: cell-based; settings: lactic-acid 10 mM; CHC 425 μM, phloretin 25 μM, antibody 2.5 μg/ml, AR-C155858 increasing concentrations
T1 construct: endogenous in cells
T1 sequence (P53986 1-493): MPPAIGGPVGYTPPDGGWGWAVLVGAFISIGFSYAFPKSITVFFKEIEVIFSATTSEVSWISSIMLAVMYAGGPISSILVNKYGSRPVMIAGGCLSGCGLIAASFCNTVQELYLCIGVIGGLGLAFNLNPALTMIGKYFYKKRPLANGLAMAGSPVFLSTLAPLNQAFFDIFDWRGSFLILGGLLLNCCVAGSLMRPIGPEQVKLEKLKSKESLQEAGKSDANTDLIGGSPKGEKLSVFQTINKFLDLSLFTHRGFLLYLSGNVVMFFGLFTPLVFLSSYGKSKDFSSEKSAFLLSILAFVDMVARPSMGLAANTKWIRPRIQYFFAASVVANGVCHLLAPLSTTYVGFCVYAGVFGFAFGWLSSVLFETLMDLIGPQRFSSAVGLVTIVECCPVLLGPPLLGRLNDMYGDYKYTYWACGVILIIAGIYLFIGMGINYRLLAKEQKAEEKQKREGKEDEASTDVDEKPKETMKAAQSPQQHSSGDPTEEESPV
T1 sequence (P18572 140-389 partner limits assumed): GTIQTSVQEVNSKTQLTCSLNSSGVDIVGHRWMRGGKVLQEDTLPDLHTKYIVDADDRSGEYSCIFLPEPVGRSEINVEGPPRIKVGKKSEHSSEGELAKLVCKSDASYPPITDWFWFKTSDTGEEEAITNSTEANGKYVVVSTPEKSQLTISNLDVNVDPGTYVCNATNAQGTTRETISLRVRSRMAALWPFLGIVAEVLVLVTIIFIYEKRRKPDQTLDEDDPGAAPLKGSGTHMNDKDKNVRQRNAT
Excerpt: as §1

[4] = tested on: CD4+ and CD8+ T-cells in the peritoneum; test: Zymosan-induced peritonitis: T-cells in peritoneal lavage; type: in vivo, mouse; settings: i.p. day 5 after zymosan, phloretin 50 μM, antibody 5 μg/ml, 24 h
Experimental: The inventors used a well-established mouse model of zymosan-induced peritonitis, in which T-cells are recruited to the inflamed site 5 days after zymosan injection (Montero-Melendez et al 2011 Am J Pathol 179: 259-269). C57BL/6 mice were injected in the peritoneal cavity with zymosan (1 mg/mouse) on day 0 or left untreated. On day 5, Phloretin, an anti-Slc5a12 antibody or an isotype control antibody were injected into the peritoneal cavity. 24 hours later, mice were sacrificed and the peritoneal lavage was harvested.
(§3) In vivo zymosan-induced peritonitis: C57BL/6 mice were injected in the peritoneal cavity with zymosan (1 mg per mouse) on day 0 or left untreated. On day 5, Phloretin (50 μM), anti-Slc5a12 antibody (5 μg/ml) or anti-rabbit IgG isotype control antibody (5 μg/ml; Invitrogen) were injected into the peritoneal cavity. 24 hours later, mice were sacrificed and the peritoneal lavage was harvested. T-cells were stained for surface markers (CD4 and CD8; ebiosciences) and analyzed by FACS. This method was used in FIG. 6B and S6A-B. Alternatively C57BL/6 mice were injected in the peritoneal cavity with zymosan (1 mg per mouse) on day 0. […] T-cells were stained for surface markers (CD4 and CD8; ebiosciences) and analyzed by FACS. Cells were first gated on CD4 and subsequently analysed for CFSE positivity. […]

[5] = tested on: CFSE-labelled CD4+ T-cells; test: Zymosan-induced peritonitis: adoptive transfer of CFSE-labelled CD4+ T-cells; type: in vivo, mouse; settings: co-injected i.p. day 5 after zymosan; 24 h
Experimental: To establish that the decrease in T-cell localization to the peritoneal cavity was at least in part due to their increased release from this site, the inventors performed adoptive transfer experiments whereby CFSE-labelled CD4+ T-cells were co-injected with anti-Slc5a12 antibody, phloretin or an isotype control antibody in the peritoneal cavity of mice which had received zymosan (1 mg/mouse) 5 days before, to create an environment rich of lactate (FIG. 12A). 24 hours after the intra-peritoneal injection of CFSE-labelled CD4+ T-cells, mice were sacrificed, and peritoneal lavage and spleen were harvested.
as §3, with “FACS.” for “FACS. This method was used in FIG. 6B and S6A-B. Alternatively C57BL/6 mice were injected in the peritoneal cavity with zymosan (1 mg per mouse) on day 0.”

activated CD8+ T-cells = test: In vitro chemokinesis of activated CD8+ T-cells towards CXCL10 (transwell); type: cell-based, mouse; settings: 10 mM lactic acid or sodium lactate; CXCL10 300 ng/ml
Excerpt: as §1

activated CD4+ T-cells [6] = test: CCL5-induced chemokinesis of activated CD4+ T-cells; type: cell-based, mouse; settings: 10 mM; CCL5 50 ng/ml
Excerpt: as §1

activated CD4+ T-cells [7] = test: Western blot of glycolytic enzymes in activated CD4+ T-cells treated with CXCL10; type: cell-based, mouse; settings: CXCL10 1000 ng/ml; sodium-lactate 10 mM
Experimental: Western blot: Protein lysates were prepared from activated T-cells in RIPA buffer. Proteins were separated with SDS-PAGE and transferred to a Nylon membrane (GE Healthcare). Membranes were blocked for 2 h at room temperature in 5% Milk/TBST, incubated overnight at 4° C. with primary antibodies (1:1000) and subsequently with HRP-conjugated secondary antibody (Amersham Bioscience) (1:5000). Antibodies against hexokinase 1, pyruvate kinase M1/2, Aldolase A, Enolase 1 and 6-actin were purchased from Cell Signaling; antibodies against Slc16a1 and Slc5a12 were purchased from Abeam.

activated CD4+ T-cells [8] = test: Glucose uptake and flux with 2-NBDG / 6-NBDG in CD4+ T-cells; type: cell-based, mouse; settings: 10 mM; 2-NBDG and 6-NBDG probes
Experimental: as §2

[9] = tested on: CD4+ subsets Th0, Th1, Th2 and Th17; test: qRT-PCR of cytokines and Rorc in Th0, Th1, Th2, Th17 subsets; type: cell-based, mouse; settings: sodium-lactate 10 mM
Experimental: RNA isolation and reverse transcription: RNA was isolated from 10^6 cells or 10 mg RA synovial tissue using commercially available kits (Qiagen) or Trizol (Life) according to the manufacturer's instructions and assessed for quality and quantity using absorption measurements. Reverse transcription to cDNA was performed according to the manufacturer's instruction (Applied Biosystems).
qRT-PCR: Gene expression analysis was done using SYBR Green Supermix (Biorad) in CFX connect light cycler (Biorad), according to the manufacturer's instructions. Gene relative expression was calculated using the rlAct method and normalized to a reference control (RplpO). Primers for qRT-PCR were designed with the assistance of online tools (Primer 3PIus) using at least one exon junction binding site per primer pair where possible. A complete list of primers used is available in Table 2 below. Gene accession numbers are shown according to GenBank.
Th subset differentiation: T-cells were isolated from murine lymph nodes and enriched for CD3+ and subsequently CD4+ subsets. 10^6 cells were plated/well and differentiated towards Th0, Th1, Th2 and Th17 phenotype. Conditions were: Th0 (10 ng/ml IL-2); Th1 (10 ng/ml IL-2; 3.4 ng/ml IL-12; 2 μg/ml Anti-IL-4); Th2 (10 ng/ml IL-2; 10 ng/ml IL-4; 2 μg/ml Anti-IFN-γ); Th17 (10 ng/ml IL-6; 2 μg/ml Anti-IL-4; 2 μg/ml Anti-IFN-γ, 5 ng/ml TGF-β). All antibodies and cytokines were purchased from PeproTech.

activated CD4+ T-cells [10] = test: Intracellular staining of IL-17 in activated CD4+ T-cells; type: cell-based, mouse; settings: sodium-lactate 10 mM vs untreated
Experimental: Intracellular protein staining: Differentiated T-cells were incubated in permeabilization/fixation buffer (ebioscience) overnight at 4° C. Samples were washed in permeabilization buffer (ebioscience) and stained for the cytokines IFN-γ and IL-17, using fluorescently conjugated primary antibodies (1:200, ebiosciences) at 4° C. for 30 minutes, and assessed by flow cytometry using a LSR Fortessa (BD Biosciences) and FlowJo version 7.6.5 software.

O=CC[C@@H](O)[C@H](O)[C@H](O)CO [2-DG, 2-deoxyglucose]
chemokinesis in vitro towards CXCL10 of pre-treated activated CD4+ T-cells (activated CD4+ T-cells [1]): decrease | effect on glycolysis (ECAR trace) of metabolic drugs (activated CD4+ T-cells [2]): inhibition of glycolysis | chemokinesis in vivo: T-cell recruitment to the peritoneum (activated CD4+ T-cells [3]): decrease | naive T-lymphocyte motility (naive T-cells): decrease

N#CC(=Cc1ccc(O)cc1)C(=O)O [CHC, α-cyano-4-hydroxycinnamate]
chemokinesis of CD8+ T-cells exposed to lactic-acid upon blockade of Slc16a1 (Slc16a1 on CD8+ T-cells): restored

CCOC(=O)[C@@]1(CCCCCCOc2ccc(Cl)cc2)CO1 [etomoxir]
effect on glycolysis (ECAR trace) of metabolic drugs (activated CD4+ T-cells [2]): only minor effects

CN(C)C(=N)N=C(N)N [metformin]
chemokinesis in vitro towards CXCL10 of pre-treated activated CD4+ T-cells (activated CD4+ T-cells [1]): increased | effect on glycolysis (ECAR trace) of metabolic drugs (activated CD4+ T-cells [2]): activation of glycolysis | chemokinesis in vivo: T-cell recruitment to the peritoneum (activated CD4+ T-cells [3]): increased | naive T-lymphocyte motility (naive T-cells): reduced

O=C(CCc1ccc(O)cc1)c1c(O)cc(O)cc1O [phloretin]
chemokinesis of CD8+ T-cells exposed to lactic-acid upon blockade of Slc16a1 (Slc16a1 on CD8+ T-cells): restored | CD8+ T-cells in the peritoneum [4]: significant decrease | CD4+ T-cells in the peritoneum ([4]; vs isotype control): did not show any effect | adoptively transferred T-cells in the peritoneum [5]: not | adoptively transferred T-cells in the spleen [5]: not

CC(O)C(=O)[O-].[Na+] (stereo not drawn) [sodium-lactate]
CXCL10-induced chemokinesis of activated CD4+ T-cells (activated CD4+ T-cells [1]; 10 mM lactic acid or sodium lactate, CXCL10 300 ng/ml): inhibited | EC50 (activated CD4+ T-cells [1]; increasing concentration of sodium lactate, CXCL10 300 ng/ml, read-out: EC50 for decrease of migration of CD4+ T-cells): ~10 mM | CXCL10-induced chemokinesis of activated CD8+ T-cells (activated CD8+ T-cells): not vice versa | CCL5-induced migration of CD4+ T-cells (activated CD4+ T-cells [6]): decreased | CXCL10-induced upregulation of glycolytic enzymes (activated CD4+ T-cells [7]): inhibited | glycolysis (ECAR) of CXCL10-stimulated CD4+ T-cells (activated CD4+ T-cells [2]; CXCL10 1000 ng/ml, sodium-lactate 10 mM): shut down glycolysis | ECAR of CD4+ T-cells, basal conditions (activated CD4+ T-cells [2]; sodium-lactate 10 mM, untreated control average 14 mpH/min): less than 5 mpH/min | glucose uptake and flux through glycolysis in CD4+ T-cells (activated CD4+ T-cells [8]): selectively blocks | IL-17 gene expression in Th subsets ([9]; all the Th subsets): significant up-regulation | Rorc gene expression in Th subsets ([9]; all the Th subsets): significantly elevated | gene expression of Th1 and Th2 signature cytokines ([9]; reduced: IL-4, IL-5, IL-13 in Th17 subset): unmodified upon treatment with sodium-lactate or even reduced | expression of IL-17 protein in CD4+ cells (activated CD4+ T-cells [10]): increased
